Key:
Assay type in all cases: in vivo
barnyardgrass [1] = assay: Test Example 1: herbicidal effects in preemergence treatment under submerged conditions; settings: dose 2.52 g/a
How it was run: (§1)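 Score 0–5 by mortality (5: ≥90%; 0: <5%), read 3 weeks post-application. Paddy-type cups: alluvial soil under 4 cm water, weeds seeded plus transplanted 2.5-leaf rice; diluted EC dosed onto water surface same day as sowing, g/a basis; greenhouse 25 to 30° C.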

bulrush [2] = assay: as above; settings: dose 2.52 g/a
How it was run: as §1

ducksalad [3] = assay: as above; settings: dose 2.52 g/a
How it was run: as §1

transplanted rice = assay: Test Example 1: preemergence treatment under submerged conditions, effect on crop; settings: dose 2.52 g/a
How it was run: as §1

barnyardgrass [4] = assay: Test Example 2: herbicidal effects during the vegetation period under submerged conditions; settings: treatment during the vegetation period under submerged conditions; dose 2.52 g/a
How it was run: (§2)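 Barnyardgrass, bulrush and ducksalad were co-sown in alluvial soil flooded to 4 cm and grown in a greenhouse at 25 to 30° C. At the 1- or 2-leaf stage, water-diluted emulsifiable concentrates went onto the water surface at set doses (g/a). Herbicidal effect was scored three weeks later on a graded scale.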

bulrush [5] = assay: as above; settings: treatment during the vegetation period under submerged conditions; dose 2.52 g/a
How it was run: as §2

ducksalad [6] = assay: as above; settings: treatment during the vegetation period under submerged conditions; dose 2.52 g/a
How it was run: as §2

Italian ryegrass [7] = assay: Test Example 3: herbicidal effects in soil treatment; settings: dose 3.2 g/a
How it was run: (§3)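 Seeds were sown in sterilized diluvial soil and covered with about 1.5 cm of soil. Compounds, formulated as emulsifiable concentrates and diluted with water, were sprayed evenly over the soil surface at set doses in g/a. Herbicidal effect was scored on a rating scale three weeks later.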

barnyardgrass [8] = assay: as above; settings: dose 3.2 g/a
How it was run: as §3

beadstraw [9] = assay: as above; settings: dose 3.2 g/a
How it was run: as §3

common chickweed [10] = assay: as above; settings: dose 3.2 g/a
How it was run: as §3

common lambsquater [11] = assay: as above; settings: dose 3.2 g/a
How it was run: as §3

common ragweed [12] = assay: as above; settings: dose 3.2 g/a
How it was run: as §3

giant foxtail [13] = assay: as above; settings: dose 3.2 g/a
How it was run: as §3

large crabgrass [14] = assay: as above; settings: dose 3.2 g/a
How it was run: as §3

posumbu knotweed [15] = assay: as above; settings: dose 3.2 g/a
How it was run: as §3

redroot pigweed [16] = assay: as above; settings: dose 3.2 g/a
How it was run: as §3

velvetleaf [17] = assay: as above; settings: dose 3.2 g/a
How it was run: as §3

water foxtail [18] = assay: as above; settings: dose 3.2 g/a
How it was run: as §3

wild oat [19] = assay: as above; settings: dose 3.2 g/a
How it was run: as §3

Italian ryegrass [20] = assay: Test Example 4: herbicidal effect in foliage treatment; settings: dose 3.2 g/a, three weeks after application
How it was run: (§4)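 Doses are given in grams per are of applied compound, sprayed as water-diluted emulsifiable concentrate onto foliage of 14-day-old plants grown at 25 to 30° C. Herbicidal activity was assessed visually on a rating scale after three weeks.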

barnyardgrass [21] = assay: as above; settings: dose 3.2 g/a, three weeks after application
How it was run: as §4

beadstraw [22] = assay: as above; settings: dose 3.2 g/a, three weeks after application
How it was run: as §4

common chickweed [23] = assay: as above; settings: dose 3.2 g/a, three weeks after application
How it was run: as §4

common lambsquater [24] = assay: as above; settings: dose 3.2 g/a, three weeks after application
How it was run: as §4

common ragweed [25] = assay: as above; settings: dose 3.2 g/a, three weeks after application
How it was run: as §4

giant foxtail [26] = assay: as above; settings: dose 3.2 g/a, three weeks after application
How it was run: as §4

large crabgrass [27] = assay: as above; settings: dose 3.2 g/a, three weeks after application
How it was run: as §4

posumbu knotweed [28] = assay: as above; settings: dose 3.2 g/a, three weeks after application
How it was run: as §4

redroot pigweed [29] = assay: as above; settings: dose 3.2 g/a, three weeks after application
How it was run: as §4

velvetleaf [30] = assay: as above; settings: dose 3.2 g/a, three weeks after application
How it was run: as §4

water foxtail [31] = assay: as above; settings: dose 3.2 g/a, three weeks after application
How it was run: as §4

wild oat [32] = assay: as above; settings: dose 3.2 g/a, three weeks after application
How it was run: as §4

CCOC(=O)N(c1ccccc1CN1COC(C)(C)C(F)C1=O)S(=O)(=O)C(F)(F)F (stereo not drawn) [II-34] was tested, and the “A: barnyardgrass, herbicidal effect (evaluation scale 0-5)” value (barnyardgrass [1]) was 5 (mortality of 90% or above (nearly complete death)), the “B: bulrush, herbicidal effect (evaluation scale 0-5)” value (from here on “B: bulrush, herbicidal effect”) (bulrush [2]) was 5 (mortality of 90% or above (nearly complete death)) and the “C: ducksalad, herbicidal effect (evaluation scale 0-5)” value (“C: ducksalad, herbicidal effect” below) (ducksalad [3]) was 5 (mortality of 90% or above (nearly complete death)). The “a: transplanted rice, effect on crop (evaluation scale 0-5)” value (transplanted rice) was 0 (mortality of less than 5% (almost ineffective)), the “A: barnyardgrass, herbicidal effect (evaluation scale 0-5)” value (barnyardgrass [4]) was 5 (mortality of 90% or above (nearly complete death)) and the “B: bulrush, herbicidal effect” value (bulrush [5]) was 5 (mortality of 90% or above (nearly complete death)). For the same compound, the “C: ducksalad, herbicidal effect” value (ducksalad [6]) was 5 (mortality of 90% or above (nearly complete death)), the “H: Italian ryegrass, herbicidal effect (evaluation scale 0-5)” value (Italian ryegrass [7]) was 2 (mortality of at least 20% and less than 40%) and the “A: barnyardgrass, herbicidal effect (evaluation scale 0-5)” value (barnyardgrass [8]) was 5 (mortality of 90% or above (nearly complete death)). For the same compound, the “O: beadstraw, herbicidal effect (evaluation scale 0-5)” value (beadstraw [9]) was 4 (mortality of at least 70% and less than 90%), the “N: common chickweed, herbicidal effect (evaluation scale 0-5)” value (common chickweed [10]) was 3 (mortality of at least 40% and less than 70%) and the “L: common lambsquater, herbicidal effect (evaluation scale 0-5)” value (common lambsquater [11]) was 3 (mortality of at least 40% and less than 70%). For the same compound, the “J: common ragweed, herbicidal effect (evaluation scale 0-5)” value (common ragweed [12]) was 4 (mortality of at least 70% and less than 90%), the “E: giant foxtail, herbicidal effect (evaluation scale 0-5)” value (giant foxtail [13]) was 4 (mortality of at least 70% and less than 90%) and the “D: large crabgrass, herbicidal effect (evaluation scale 0-5)” value (large crabgrass [14]) was 5 (mortality of 90% or above (nearly complete death)). The “M: posumbu knotweed, herbicidal effect (evaluation scale 0-5)” value (posumbu knotweed [15]) was 5 (mortality of 90% or above (nearly complete death)), the “K: redroot pigweed, herbicidal effect (evaluation scale 0-5)” value (redroot pigweed [16]) was 3 (mortality of at least 40% and less than 70%) and the “I: velvetleaf, herbicidal effect (evaluation scale 0-5)” value (velvetleaf [17]) was 3 (mortality of at least 40% and less than 70%). The “G: water foxtail, herbicidal effect (evaluation scale 0-5)” value (water foxtail [18]) was 5 (mortality of 90% or above (nearly complete death)), the “F: wild oat, herbicidal effect (evaluation scale 0-5)” value (wild oat [19]) was 0 (mortality of less than 5% (almost ineffective)) and the “H: Italian ryegrass, herbicidal effect” value (Italian ryegrass [20]) was 4 (mortality of at least 70% and less than 90%). For the same compound, the “A: barnyardgrass, herbicidal effect” value (barnyardgrass [21]) was 5 (mortality of 90% or above (nearly complete death)), the “O: beadstraw, herbicidal effect” value (beadstraw [22]) was 4 (mortality of at least 70% and less than 90%) and the “N: common chickweed, herbicidal effect” value (common chickweed [23]) was 4 (mortality of at least 70% and less than 90%). The “L: common lambsquater, herbicidal effect” value (common lambsquater [24]) was 3 (mortality of at least 40% and less than 70%), the “J: common ragweed, herbicidal effect” value (common ragweed [25]) was 4 (mortality of at least 70% and less than 90%) and the “E: giant foxtail, herbicidal effect” value (giant foxtail [26]) was 3 (mortality of at least 40% and less than 70%). The “D: large crabgrass, herbicidal effect” value (large crabgrass [27]) was 4 (mortality of at least 70% and less than 90%), the “M: posumbu knotweed, herbicidal effect” value (posumbu knotweed [28]) was 4 (mortality of at least 70% and less than 90%) and the “K: redroot pigweed, herbicidal effect” value (redroot pigweed [29]) was 2 (mortality of at least 20% and less than 40%). The “I: velvetleaf, herbicidal effect” value (velvetleaf [30]) was 3 (mortality of at least 40% and less than 70%), the “G: water foxtail, herbicidal effect” value (water foxtail [31]) was 5 (mortality of 90% or above (nearly complete death)) and the “F: wild oat, herbicidal effect” value (wild oat [32]) was 0 (mortality of less than 5% (almost ineffective)).

CN(c1ccccc1CN1COC(C)(C)CC1=O)S(=O)(=O)C(F)(F)F [II-18] was tested, and the “A: barnyardgrass, herbicidal effect (evaluation scale 0-5)” value (barnyardgrass [1]) was 2 (mortality of at least 20% and less than 40%), the “B: bulrush, herbicidal effect” value (bulrush [2]) was 5 (mortality of 90% or above (nearly complete death)) and the “C: ducksalad, herbicidal effect” value (ducksalad [3]) was 0 (mortality of less than 5% (almost ineffective)). For the same compound, the “a: transplanted rice, effect on crop (evaluation scale 0-5)” value (transplanted rice) was 0 (mortality of less than 5% (almost ineffective)), the “A: barnyardgrass, herbicidal effect (evaluation scale 0-5)” value (barnyardgrass [4]) was 5 (mortality of 90% or above (nearly complete death)) and the “B: bulrush, herbicidal effect” value (bulrush [5]) was 5 (mortality of 90% or above (nearly complete death)). For the same compound, the “C: ducksalad, herbicidal effect” value (ducksalad [6]) was 2 (mortality of at least 20% and less than 40%), the “H: Italian ryegrass, herbicidal effect (evaluation scale 0-5)” value (Italian ryegrass [7]) was 0 (mortality of less than 5% (almost ineffective)) and the “A: barnyardgrass, herbicidal effect (evaluation scale 0-5)” value (barnyardgrass [8]) was 4 (mortality of at least 70% and less than 90%). The “O: beadstraw, herbicidal effect (evaluation scale 0-5)” value (beadstraw [9]) was 4 (mortality of at least 70% and less than 90%), the “N: common chickweed, herbicidal effect (evaluation scale 0-5)” value (common chickweed [10]) was 4 (mortality of at least 70% and less than 90%) and the “L: common lambsquater, herbicidal effect (evaluation scale 0-5)” value (common lambsquater [11]) was 0 (mortality of less than 5% (almost ineffective)). The “J: common ragweed, herbicidal effect (evaluation scale 0-5)” value (common ragweed [12]) was 4 (mortality of at least 70% and less than 90%), the “E: giant foxtail, herbicidal effect (evaluation scale 0-5)” value (giant foxtail [13]) was 0 (mortality of less than 5% (almost ineffective)) and the “D: large crabgrass, herbicidal effect (evaluation scale 0-5)” value (large crabgrass [14]) was 0 (mortality of less than 5% (almost ineffective)). For the same compound, the “M: posumbu knotweed, herbicidal effect (evaluation scale 0-5)” value (posumbu knotweed [15]) was 0 (mortality of less than 5% (almost ineffective)), the “K: redroot pigweed, herbicidal effect (evaluation scale 0-5)” value (redroot pigweed [16]) was 0 (mortality of less than 5% (almost ineffective)) and the “I: velvetleaf, herbicidal effect (evaluation scale 0-5)” value (velvetleaf [17]) was 0 (mortality of less than 5% (almost ineffective)). The “G: water foxtail, herbicidal effect (evaluation scale 0-5)” value (water foxtail [18]) was 0 (mortality of less than 5% (almost ineffective)), the “F: wild oat, herbicidal effect (evaluation scale 0-5)” value (wild oat [19]) was 0 (mortality of less than 5% (almost ineffective)) and the “H: Italian ryegrass, herbicidal effect” value (Italian ryegrass [20]) was 0 (mortality of less than 5% (almost ineffective)). For the same compound, the “A: barnyardgrass, herbicidal effect” value (barnyardgrass [21]) was 4 (mortality of at least 70% and less than 90%), the “O: beadstraw, herbicidal effect” value (beadstraw [22]) was 5 (mortality of 90% or above (nearly complete death)) and the “N: common chickweed, herbicidal effect” value (common chickweed [23]) was 4 (mortality of at least 70% and less than 90%). The “L: common lambsquater, herbicidal effect” value (common lambsquater [24]) was 0 (mortality of less than 5% (almost ineffective)), the “J: common ragweed, herbicidal effect” value (common ragweed [25]) was 3 (mortality of at least 40% and less than 70%) and the “E: giant foxtail, herbicidal effect” value (giant foxtail [26]) was 0 (mortality of less than 5% (almost ineffective)). The “D: large crabgrass, herbicidal effect” value (large crabgrass [27]) was 0 (mortality of less than 5% (almost ineffective)), the “M: posumbu knotweed, herbicidal effect” value (posumbu knotweed [28]) was 3 (mortality of at least 40% and less than 70%) and the “K: redroot pigweed, herbicidal effect” value (redroot pigweed [29]) was 0 (mortality of less than 5% (almost ineffective)). The “I: velvetleaf, herbicidal effect” value (velvetleaf [30]) was 0 (mortality of less than 5% (almost ineffective)), the “G: water foxtail, herbicidal effect” value (water foxtail [31]) was 0 (mortality of less than 5% (almost ineffective)) and the “F: wild oat, herbicidal effect” value (wild oat [32]) was 0 (mortality of less than 5% (almost ineffective)).

Source: patent publication US20120029187A1, “HALOALKYLSULFONANILIDE DERIVATIVE” (Nissan Chemical Industries, Ltd., priority 2009, published 2012)
